Test results: patent publication US4533670A, “Anti-convulsant fluorenylalkylimidazole derivatives, compositions, and method of use” (Eli Lilly and Company, priority 1983, dated 1985)
Structures can show the parent of a compound that is named as a salt. Where two headings read alike, the source gives them in different places.

Tests used:
[1] = system: extensor tonic convulsions; test: Electroshock induced convulsion inhibition assay; format: in vivo, Cox standard strain albino male mice; conditions: Mus musculus, po, p.o. (gavage), mice, 0.1 second, 50 milliampere corneal electroshock, read-out: ED50 (dose which inhibited extensor tonic convulsions in one half of the animals)
Description: The compounds of Formula II are anticonvulsant agents with a high therapeutic ratio and long half-life and are therefore useful in the treatment and/or prevention of convulsions in mammals. In particular, the compounds are effective against tonic extensor seizures elicited by maximal electroshock and should therefore be useful for treating generalized tonic-clonic ("grand mal"), cortical focal, complex partial (temporal lobe epilepsy), simple partial (focal motor), and post-traumaticseizures in humans. […] In the electroshock induced convulsion inhibition assay, the compound to be tested was dissolved in water (5%--sufficient hydrochloric acid was added for those compounds which were not isolated as a salt in order to effect dissolution) and administered by gavage to each of three Cox standard strain albino male mice (18-24 g.) at the dose level being investigated. Sixty to 240 minutes after compound administration, the mice were subjected to a 0.1 second, 50 milliampere electroshock through corneal electrodes. The animals were examined and evaluated immediately after the electroshock for the occurrence of clonic, flexor tonic, or extensor tonic convulsions, or death and the ED50 was determined for each compound (for the particular time after administration of the compound) as the dose which inhibited the occurrence of extensor tonic convulsions in one half of the animals immediately after the electroshock. For comparison, 18 milliamperes was usually sufficient to produce extensor tonic convulsions in about half of the control animals; at 50 milliamperes, almost all control animals (receiving vehicle only) died. The test results are summarized in Table I as the ED50 's at the optimal time after compound administration.

[2] = system: seizures; conditions: man; cited from earlier work
[3] = man, cited from earlier work
[4] = 2 h, 120 minutes after administration (optimal time)
[5] = 1 h, 60 minutes after administration (optimal time)

Row | SMILES | ED50 [1, 4] [mg/kg] | ED50 [1, 5] [mg/kg] | further results
1 | CC1COC(Cn2ccnc2)(c2ccc3c(c2)Cc2ccccc2-3)O1 (stereo not shown) [Example 19, 1-([2-(9H-fluoren-2-yl)-4-methyl-1,3-dioxolan-2-yl]methyl)-1H-imidazole] | 21 |  | 
2 | Cl.c1ccc2c(c1)Cc1cc(C3(Cn4ccnc4)SCCS3)ccc1-2 [Example 23, 1-([2-(9H-fluoren-2-yl)-1,3-dithiolan-2-yl]methyl)-1H-imidazole hydrochloride] | 41 |  | 
3 | Cl.O=C(Cn1ccnc1)c1cccc2c1-c1ccccc1C2 [Example 10, 1-(9H-fluoren-4-yl)-2-(1H-imidazol-1-yl)ethanone hydrochloride] |  | 44 | 
4 | O=C1NC(=O)C(c2ccccc2)(c2ccccc2)N1 [phenytoin] |  |  | plasma level at which seizures are controlled [2]: ≥ 10 µg/mL; plasma level at which ataxia is obvious ([3]; ataxia): 30000 ng/mL; plasma level at which lethargy is apparent ([3]; lethargy): about 40 mcg./ml.; plasma level at which nystagmus is seen ([3]; nystagmus): around 20 mcg./ml.
5 | CCSC(Cn1ccnc1)c1ccc2c(c1)Cc1ccccc1-2.Cl (stereo not shown) [Example 17, 1-[2-(Ethylthio)-2-(9H-fluoren-2-yl)ethyl]-1H-imidazole hydrochloride] |  | 44 | 
6 | Cl.O=C(CCn1ccnc1)c1ccc2c(c1)Cc1ccccc1-2 [Example 11, 1-(9H-fluoren-2-yl)-3-(1H-imidazol-1-yl)-1-propanone hydrochloride] |  | 19 | 
7 | Cc1ccc2c(c1)Cc1cc(C(=O)Cn3ccnc3)ccc1-2.Cl [Example 7, 2-(1H-imidazol-1-yl)-1-(7-methyl-9H-fluoren-2-yl)ethanone hydrochloride] | 68 |  | 
8 | c1ccc2c(c1)Cc1cc(C3(Cn4ccnc4)OCCO3)ccc1-2 [Example 18, 1-([2-(9H-fluoren-2-yl)-1,3-dioxolan-2-yl]methyl)-1H-imidazole] |  |  | ED50 ([1]; 4 h, 240 minutes after administration (optimal time)): 23 mg/kg
9 | Cl.O=C(Cn1ccnc1)c1ccc2c(c1)Cc1ccccc1-2 [Example 8, 2-(1H-imidazol-1-yl)-1-(9H-fluoren-2-yl)ethanone hydrochloride] |  |  | ED50 ([1]; 3 h, 180 minutes after administration (optimal time)): 25 mg/kg
10 | Cl.O=C(Cn1ccnc1)c1ccc2c(c1)Cc1cc(Br)ccc1-2 [Example 4, 2-(1H-imidazol-1-yl)-1-(7-bromo-9H-fluoren-2-yl)ethanone hydrochloride] | 79 |  | 
11 | CC(C(=O)c1ccc2c(c1)Cc1ccccc1-2)n1ccnc1.Cl (stereo not shown) [Example 12, 2-(1H-imidazol-1-yl)-1-(9H-fluoren-2-yl)-1-propanone hydrochloride] |  |  | ED50 ([1]; 1.5 h, 90 minutes after administration (optimal time)): 35 mg/kg
12 | OC(Cn1ccnc1)c1ccc2c(c1)Cc1ccccc1-2 (stereo not shown) [Example 14, 1-(9H-fluoren-2-yl)-2-(1H-imidazol-1-yl)-1-ethanol] |  | 22 | 
13 | Cl.O=C(Cn1ccnc1)c1cccc2c1Cc1ccccc1-2 [Example 9, 1-(9H-fluoren-1-yl)-2-(1H-imidazol-1-yl)ethanone hydrochloride] | 20 |  | 
14 | CC1c2ccccc2-c2ccc(C(=O)Cn3ccnc3)cc21.Cl (stereo not shown) [Example 5, 2-(1H-imidazol-1-yl)-1-(9-methyl-9H-fluoren-2-yl)ethanone hydrochloride] | 33 |  | 
15 | CCc1nccn1CC(=O)c1ccc2c(c1)Cc1ccccc1-2 [Example 2, 2-(2-ethyl-1H-imidazol-1-yl)-1-(9H-fluoren-2-yl)ethanone] | 188 |  | 
16 | c1ccc2c(c1)Cc1cc(C3(CCn4ccnc4)OCCO3)ccc1-2 [Example 22, 1-(2-[2-(9H-fluoren-2-yl)-1,3-dioxolan-2-yl]ethyl)-1H-imidazole] |  | 26 | 
17 | CCC(C(=O)c1ccc2c(c1)Cc1ccccc1-2)n1ccnc1.Cl (stereo not shown) [Example 13, 2-(1H-imidazol-1-yl)-1-(9H-fluoren-2-yl)-1-butanone hydrochloride] |  | 50 | 
18 | OC(CCn1ccnc1)c1ccc2c(c1)Cc1ccccc1-2 (stereo not shown) [Example 15, 1-(9H-fluoren-2-yl)-3-(1H-imidazol-1-yl)-1-propanol] |  | 33 | 
19 | Cc1nccn1CC(=O)c1ccc2c(c1)Cc1ccccc1-2.Cl [Example 1, 1-(9H-fluoren-2-yl)-2-(2-methyl-1H-imidazol-1-yl)ethanone hydrochloride] |  | 210 | 
20 | CC1(C)c2ccccc2-c2ccc(C(=O)Cn3ccnc3)cc21.Cl [Example 6, 1-(9,9-Dimethyl-9H-fluoren-2-yl)-2-(1H-imidazol-1-yl)ethanone hydrochloride] |  | 48 | 
21 | CC(O)(Cn1ccnc1)c1ccc2c(c1)Cc1ccccc1-2 (stereo not shown) [Example 24, 1-(1H-imidazol-1-yl)-2-(9H-fluoren-2-yl)-2-propanol] | 14 |  | 
22 | O=C(OC(Cn1ccnc1)c1ccc2c(c1)Cc1ccccc1-2)c1ccccc1 (stereo not shown) [Example 16, 1-(9H-fluoren-2-yl)-2-(1H-imidazol-1-yl)-1-ethanol, benzoate ester hydrochloride] |  | 32 | 
23 | Cl.c1ccc2c(c1)Cc1cc(C3(Cn4ccnc4)OCCCO3)ccc1-2 [Example 21, 1-([2-(9H-fluoren-2-yl)-1,3-dioxan-2-yl]methyl)-1H-imidazole hydrochloride] |  | 32 | 
24 | Cc1cn(CC(=O)c2ccc3c(c2)Cc2ccccc2-3)cn1.Cl [Example 3, 1-(9H-fluoren-2-yl)-2-(4-methyl-1H-imidazol-1-yl)ethanone hydrochloride] |  | 90 | 
25 | CC1(C)COC(Cn2ccnc2)(c2ccc3c(c2)Cc2ccccc2-3)OC1 [Example 20, 1-([2-(9H-fluoren-2-yl)-5,5-dimethyl-1,3-dioxan-2yl]methyl)-1H-imidazole] | 65 |  | 
